Structures are written as SMILES.

The text below walks through data of patent publication US11618758B2, “Bicyclic and tricyclic pyrimidine tyrosine kinase inhibitors with antitubulin activity and methods of treating a patient” (Duquesne University of the Holy Spirit, priority 2011, dated 2023).

Assay [1] addresses T1, epidermal growth factor receptor (EGFR) (Homo sapiens, UniProt P00533). Put plainly: Kinase inhibition EGFR. Type of assay: biochemical. Conditions: comparable to sunitinib.
The target in assay [2] is vascular endothelial growth factor receptor (VEGFR2, Flk-1) (Homo sapiens, UniProt P35968). In words: Kinase inhibition VEGFR2. Type of assay: biochemical. Conditions: comparable to sunitinib.
vascular endothelial growth factor receptor (VEGFR2, Flk-1), sequence (P35968 20-1356): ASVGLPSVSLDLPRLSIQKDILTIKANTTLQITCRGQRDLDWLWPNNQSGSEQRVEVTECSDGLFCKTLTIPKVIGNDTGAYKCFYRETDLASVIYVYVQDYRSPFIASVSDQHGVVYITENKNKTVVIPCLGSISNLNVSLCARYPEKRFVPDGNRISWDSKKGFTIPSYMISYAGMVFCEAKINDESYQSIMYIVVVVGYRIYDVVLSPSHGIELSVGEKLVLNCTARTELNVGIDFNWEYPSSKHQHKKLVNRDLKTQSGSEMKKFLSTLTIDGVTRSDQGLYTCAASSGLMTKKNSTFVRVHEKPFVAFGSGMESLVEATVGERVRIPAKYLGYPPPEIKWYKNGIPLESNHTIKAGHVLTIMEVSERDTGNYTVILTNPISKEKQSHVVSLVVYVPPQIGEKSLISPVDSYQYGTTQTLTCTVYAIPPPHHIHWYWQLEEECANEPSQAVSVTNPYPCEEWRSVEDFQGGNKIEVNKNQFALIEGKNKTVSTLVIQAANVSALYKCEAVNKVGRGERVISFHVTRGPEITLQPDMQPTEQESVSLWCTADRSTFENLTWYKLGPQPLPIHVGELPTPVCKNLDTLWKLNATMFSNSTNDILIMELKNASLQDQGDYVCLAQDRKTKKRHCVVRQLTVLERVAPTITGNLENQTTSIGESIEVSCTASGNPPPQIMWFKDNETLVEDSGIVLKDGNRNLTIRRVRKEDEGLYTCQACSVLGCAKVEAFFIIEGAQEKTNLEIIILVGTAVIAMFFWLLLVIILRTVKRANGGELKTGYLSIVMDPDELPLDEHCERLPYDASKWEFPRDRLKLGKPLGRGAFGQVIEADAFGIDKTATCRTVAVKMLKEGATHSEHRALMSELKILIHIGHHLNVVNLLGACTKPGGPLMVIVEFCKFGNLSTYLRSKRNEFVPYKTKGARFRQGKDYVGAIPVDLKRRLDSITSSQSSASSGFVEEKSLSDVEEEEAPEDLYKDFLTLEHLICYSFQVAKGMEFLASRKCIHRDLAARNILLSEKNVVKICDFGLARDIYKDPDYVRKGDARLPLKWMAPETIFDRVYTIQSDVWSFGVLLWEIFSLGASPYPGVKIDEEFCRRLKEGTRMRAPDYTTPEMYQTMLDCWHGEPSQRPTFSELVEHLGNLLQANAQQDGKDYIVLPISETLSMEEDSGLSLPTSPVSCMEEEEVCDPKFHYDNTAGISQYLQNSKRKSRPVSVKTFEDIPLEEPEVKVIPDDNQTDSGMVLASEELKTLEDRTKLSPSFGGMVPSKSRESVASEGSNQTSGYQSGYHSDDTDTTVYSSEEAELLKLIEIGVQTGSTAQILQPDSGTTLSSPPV
The target of assay [3] is platelet derived growth factor receptor-β (PDGFR-β) (Homo sapiens, UniProt P09619). Put plainly: Kinase inhibition PDGFRβ. Type of assay: biochemical. Conditions: comparable to sunitinib.
platelet derived growth factor receptor-β (PDGFR-β), sequence (P09619 33-1106, species assumed): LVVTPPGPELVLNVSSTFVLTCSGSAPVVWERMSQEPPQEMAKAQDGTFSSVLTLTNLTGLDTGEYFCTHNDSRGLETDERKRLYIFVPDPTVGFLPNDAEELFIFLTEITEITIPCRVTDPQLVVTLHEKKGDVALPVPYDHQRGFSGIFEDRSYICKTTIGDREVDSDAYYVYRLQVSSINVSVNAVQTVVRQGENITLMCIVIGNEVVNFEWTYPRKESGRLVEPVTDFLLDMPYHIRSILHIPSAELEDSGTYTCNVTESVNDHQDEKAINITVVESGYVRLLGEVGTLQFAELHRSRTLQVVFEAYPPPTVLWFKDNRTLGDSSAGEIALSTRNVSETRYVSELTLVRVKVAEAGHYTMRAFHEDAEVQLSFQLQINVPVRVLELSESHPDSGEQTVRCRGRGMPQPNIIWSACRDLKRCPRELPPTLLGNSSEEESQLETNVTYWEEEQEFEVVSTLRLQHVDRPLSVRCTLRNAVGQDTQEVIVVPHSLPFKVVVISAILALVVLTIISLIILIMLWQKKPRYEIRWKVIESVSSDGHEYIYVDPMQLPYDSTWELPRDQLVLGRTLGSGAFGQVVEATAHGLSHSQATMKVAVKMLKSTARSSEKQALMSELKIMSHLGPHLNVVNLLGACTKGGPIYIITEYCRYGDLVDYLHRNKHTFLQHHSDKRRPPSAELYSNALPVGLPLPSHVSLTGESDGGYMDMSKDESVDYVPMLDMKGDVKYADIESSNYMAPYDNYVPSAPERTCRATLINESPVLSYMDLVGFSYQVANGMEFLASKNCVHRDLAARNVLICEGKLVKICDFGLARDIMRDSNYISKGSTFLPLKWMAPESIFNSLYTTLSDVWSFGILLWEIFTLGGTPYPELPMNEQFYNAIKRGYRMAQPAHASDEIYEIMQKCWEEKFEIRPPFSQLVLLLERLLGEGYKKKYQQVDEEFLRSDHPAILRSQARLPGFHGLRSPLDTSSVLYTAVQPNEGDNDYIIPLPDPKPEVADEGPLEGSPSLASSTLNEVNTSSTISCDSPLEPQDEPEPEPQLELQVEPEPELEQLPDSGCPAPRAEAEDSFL
Assay [4] addresses T1, epidermal growth factor receptor (EGFR). The settings on record: does not inhibit EGFR even at these concentrations; cited from earlier work.

T1 sequence (P00533 25-1210, species assumed): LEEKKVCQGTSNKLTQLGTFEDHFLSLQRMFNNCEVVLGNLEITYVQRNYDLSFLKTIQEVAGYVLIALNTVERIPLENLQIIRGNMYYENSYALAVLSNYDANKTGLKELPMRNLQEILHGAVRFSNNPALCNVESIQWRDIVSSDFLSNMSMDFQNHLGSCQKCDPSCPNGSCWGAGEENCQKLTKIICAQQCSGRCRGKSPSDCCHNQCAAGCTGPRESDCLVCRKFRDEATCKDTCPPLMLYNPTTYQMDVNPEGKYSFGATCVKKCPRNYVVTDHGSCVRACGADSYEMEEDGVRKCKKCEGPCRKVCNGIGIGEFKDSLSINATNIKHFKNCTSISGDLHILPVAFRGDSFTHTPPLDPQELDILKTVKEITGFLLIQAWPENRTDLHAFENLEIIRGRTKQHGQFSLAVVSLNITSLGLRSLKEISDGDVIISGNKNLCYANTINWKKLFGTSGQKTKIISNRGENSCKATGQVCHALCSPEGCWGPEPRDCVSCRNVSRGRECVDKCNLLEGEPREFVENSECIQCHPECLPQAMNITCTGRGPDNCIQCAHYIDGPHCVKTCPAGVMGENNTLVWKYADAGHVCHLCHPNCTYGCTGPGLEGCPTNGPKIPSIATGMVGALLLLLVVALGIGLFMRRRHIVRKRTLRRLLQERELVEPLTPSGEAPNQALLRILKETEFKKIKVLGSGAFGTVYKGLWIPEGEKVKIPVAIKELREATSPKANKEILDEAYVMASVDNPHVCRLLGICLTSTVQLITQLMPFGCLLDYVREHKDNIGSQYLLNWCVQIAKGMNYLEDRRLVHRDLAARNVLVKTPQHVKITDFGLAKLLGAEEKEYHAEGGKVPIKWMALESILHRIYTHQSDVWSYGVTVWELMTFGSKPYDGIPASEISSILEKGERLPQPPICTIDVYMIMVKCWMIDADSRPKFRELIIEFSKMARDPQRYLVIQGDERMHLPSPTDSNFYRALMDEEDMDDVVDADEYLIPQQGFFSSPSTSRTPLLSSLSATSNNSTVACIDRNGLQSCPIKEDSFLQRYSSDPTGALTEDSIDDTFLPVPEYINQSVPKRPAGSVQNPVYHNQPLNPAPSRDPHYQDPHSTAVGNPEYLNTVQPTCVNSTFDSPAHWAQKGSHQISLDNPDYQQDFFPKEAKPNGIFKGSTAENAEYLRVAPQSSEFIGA

With `COc1ccc2c(c1)CCCN2c1nc(C)nc2c1[nH]c1ccccc12` [Composition 106], in assay [1], the “EGFR kinase inhibition (in words, FIG. 16)” value is “potent inhibitors”. For the same compound, the “Flk-1 (VEGR2) kinase inhibition (in words, FIG. 16)” value in assay [2] is on record as “potent inhibitors”. Further, in assay [3], the “PDGFR kinase inhibition (in words, FIG. 16)” value is on record as “potent inhibitors”.
`CN(C)c1ccc(/C=C2\C(=O)Nc3ccccc32)cc1` [DMBI]: the “concentration at which EGFR is not inhibited” value in assay [4] is reported as “greater than 100 μM”.
